Laboratory results from the NIST ThermoML archive (doi:10.1021/je049655w).
“And” between values parts separate entries of the source, which are not always exact repeats. Equal entries are not always repeated.

What was measured:
[1] = refractive index (Na D-line) (dimensionless); conditions: 298.15 K; 101.33 kPa; Liquid; Standard Abbe refractometry
[2] = 100.8 kPa, Liquid
[3] = xn = mol fraction of the nth substance listed; conditions: 100.8 kPa, Liquid

CC(C)CC(C)(C)C [2,2,4-trimethylpentane]
Conditions | refractive index
[1] | 1.38902

[2]
Conditions | mass density [kg/m3] | viscosity
298.15 K | 687.8 | 0.474 mPa·s
308.15 K | 679.5 | 0.422 mPa·s and 0.426 mPa·s
318.15 K | 671 | 0.382 mPa·s

CC(C)CC(C)(C)C [2,2,4-trimethylpentane] + CCC(C)=O
[3], x2 = 0
Conditions | mass density [kg/m3] | viscosity [mPa·s]
298.15 K | 687.8 | 0.474
308.15 K | 679.5 | 0.426
318.15 K | 671 | 0.382

CC(C)CC(C)(C)C [2,2,4-trimethylpentane] + CCO
[3]
Conditions | mass density, 298.15 K [kg/m3] | mass density, 308.15 K [kg/m3] | mass density, 318.15 K [kg/m3] | viscosity, 298.15 K [mPa·s] | viscosity, 308.15 K [mPa·s] | viscosity, 318.15 K [mPa·s]
x2 = 0 | 687.8 | 679.5 | 671 | 0.474 | 0.422 | 0.382
x2 = 0.05 | 688.8 | 680.4 | 671.7 | 0.476 | 0.424 | 0.384
x2 = 0.1 | 690.3 | 681.8 | 673 | 0.478 | 0.426 | 0.385
x2 = 0.15 | 692.1 | 683.5 | 674.7 | 0.48 | 0.429 | 0.389
x2 = 0.2 | 694 | 685.4 | 676.5 | 0.484 | 0.433 | 0.391
x2 = 0.25 | 696.2 | 687.5 | 678.6 | 0.494 | 0.439 | 0.397
x2 = 0.3 | 698.5 | 689.8 | 680.9 | 0.507 | 0.45 | 0.404
x2 = 0.35 | 701.1 | 692.4 | 683.4 | 0.521 | 0.462 | 0.412
x2 = 0.4 | 704 | 695.2 | 686.2 | 0.54 | 0.474 | 0.422
x2 = 0.45 | 707.1 | 698.3 | 689.3 | 0.561 | 0.487 | 0.433
x2 = 0.5 | 710.6 | 701.8 | 692.8 | 0.586 | 0.506 | 0.446
x2 = 0.55 | 714.5 | 705.7 | 696.6 | 0.613 | 0.527 | 0.463
x2 = 0.6 | 718.8 | 710 | 700.9 | 0.643 | 0.55 | 0.48
x2 = 0.65 | 723.6 | 714.9 | 705.8 | 0.678 | 0.576 | 0.5
x2 = 0.7 | 729.1 | 720.3 | 711.3 | 0.718 | 0.606 | 0.524
x2 = 0.75 | 735.4 | 726.6 | 717.6 | 0.76 | 0.641 | 0.55
x2 = 0.8 | 742.3 | 733.6 | 724.7 | 0.806 | 0.677 | 0.58
x2 = 0.85 | 750.5 | 741.7 | 732.9 | 0.861 | 0.72 | 0.616
x2 = 0.9 | 760.1 | 751.4 | 742.5 | 0.929 | 0.768 | 0.657
x2 = 0.95 | 771.5 | 762.8 | 753.9 | 0.999 | 0.829 | 0.702

CCC(C)=O [butanone]
Conditions | refractive index
[1] | 1.37623

[2]
Conditions | mass density [kg/m3] | viscosity [mPa·s]
298.15 K | 799.7 | 0.378
308.15 K | 789.2 | 0.341
318.15 K | 778.4 | 0.307

CCC(C)=O [butanone] + CC(C)CC(C)(C)C
[3]
Conditions | mass density, 298.15 K [kg/m3] | mass density, 308.15 K [kg/m3] | mass density, 318.15 K [kg/m3] | viscosity, 298.15 K [mPa·s] | viscosity, 308.15 K [mPa·s] | viscosity, 318.15 K [mPa·s]
x1 = 0.05 | 690.1 | 681.7 | 673.1 | 0.461 | 0.416 | 0.374
x1 = 0.1 | 692.7 | 684.2 | 675.4 | 0.451 | 0.408 | 0.367
x1 = 0.15 | 695.6 | 687 | 678.2 | 0.443 | 0.4 | 0.36
x1 = 0.2 | 698.7 | 690.1 | 681.1 | 0.436 | 0.394 | 0.354
x1 = 0.25 | 702.2 | 693.4 | 684.3 | 0.429 | 0.388 | 0.349
x1 = 0.3 | 705.9 | 697 | 687.8 | 0.423 | 0.382 | 0.344
x1 = 0.35 | 709.9 | 700.9 | 691.6 | 0.417 | 0.377 | 0.339
x1 = 0.4 | 714.1 | 705.1 | 695.7 | 0.412 | 0.372 | 0.335
x1 = 0.45 | 718.7 | 709.5 | 700.1 | 0.407 | 0.368 | 0.331
x1 = 0.5 | 723.6 | 714.3 | 704.8 | 0.402 | 0.363 | 0.328
x1 = 0.55 | 728.8 | 719.4 | 709.8 | 0.398 | 0.36 | 0.325
x1 = 0.6 | 734.5 | 724.9 | 715.3 | 0.394 | 0.356 | 0.322
x1 = 0.65 | 740.6 | 731 | 721.2 | 0.39 | 0.353 | 0.32
x1 = 0.7 | 747.2 | 737.4 | 727.5 | 0.387 | 0.35 | 0.317
x1 = 0.75 | 754.2 | 744.3 | 734.3 | 0.384 | 0.347 | 0.315
x1 = 0.8 | 761.9 | 751.9 | 741.7 | 0.381 | 0.345 | 0.313
x1 = 0.85 | 770.4 | 760.2 | 749.9 | 0.379 | 0.343 | 0.311
x1 = 0.9 | 779.3 | 769 | 758.6 | 0.377 | 0.342 | 0.309
x1 = 0.95 | 789.2 | 778.8 | 768.2 | 0.377 | 0.341 | 0.308
x1 = 1 | 799.7 | 789.2 | 778.4 | 0.378 | 0.341 | 0.307

CCC(C)=O [butanone] + CCO
[3]
Conditions | mass density, 298.15 K [kg/m3] | mass density, 308.15 K [kg/m3] | mass density, 318.15 K [kg/m3] | viscosity, 298.15 K [mPa·s] | viscosity, 308.15 K [mPa·s] | viscosity, 318.15 K [mPa·s]
x2 = 0 | 799.7 | 789.2 | 778.4 | 0.378 | 0.341 | 0.307
x2 = 0.05 | 799.3 | 788.8 | 778 | 0.38 | 0.345 | 0.313
x2 = 0.1 | 798.9 | 788.3 | 777.6 | 0.386 | 0.349 | 0.316
x2 = 0.15 | 798.4 | 787.9 | 777.2 | 0.393 | 0.353 | 0.32
x2 = 0.2 | 797.9 | 787.4 | 776.8 | 0.4 | 0.359 | 0.324
x2 = 0.25 | 797.4 | 787 | 776.4 | 0.409 | 0.366 | 0.33
x2 = 0.3 | 796.9 | 786.5 | 776 | 0.42 | 0.376 | 0.337
x2 = 0.35 | 796.4 | 786.1 | 775.6 | 0.431 | 0.387 | 0.345
x2 = 0.4 | 795.8 | 785.6 | 775.2 | 0.446 | 0.397 | 0.355
x2 = 0.45 | 795.2 | 785.1 | 774.7 | 0.469 | 0.412 | 0.365
x2 = 0.5 | 794.6 | 784.6 | 774.3 | 0.49 | 0.426 | 0.381
x2 = 0.55 | 794 | 784 | 773.8 | 0.512 | 0.443 | 0.398
x2 = 0.6 | 793.3 | 783.4 | 773.3 | 0.539 | 0.467 | 0.412
x2 = 0.65 | 792.6 | 782.8 | 772.8 | 0.576 | 0.493 | 0.434
x2 = 0.7 | 791.8 | 782.1 | 772.2 | 0.618 | 0.526 | 0.456
x2 = 0.75 | 790.9 | 781.4 | 771.6 | 0.673 | 0.56 | 0.482
x2 = 0.8 | 790 | 780.6 | 771 | 0.734 | 0.601 | 0.519
x2 = 0.85 | 788.9 | 779.7 | 770.3 | 0.799 | 0.654 | 0.56
x2 = 0.9 | 787.8 | 778.7 | 769.5 | 0.869 | 0.722 | 0.613
x2 = 0.95 | 786.6 | 777.7 | 768.6 | 0.961 | 0.803 | 0.676

CCO [ethanol]
Conditions | refractive index
[1] | 1.35949

[2]
Conditions | mass density [kg/m3] | viscosity [mPa·s]
298.15 K | 785.1 | 1.088
308.15 K | 776.5 | 0.904
318.15 K | 767.7 | 0.763

CCO [ethanol] + CC(C)CC(C)(C)C
[3], x1 = 1
Conditions | mass density [kg/m3] | viscosity [mPa·s]
298.15 K | 785.1 | 1.088
308.15 K | 776.5 | 0.904
318.15 K | 767.7 | 0.763

CCO [ethanol] + CCC(C)=O
[3], x1 = 1
Conditions | mass density [kg/m3] | viscosity [mPa·s]
298.15 K | 785.1 | 1.088
308.15 K | 776.5 | 0.904
318.15 K | 767.7 | 0.763
